Source: the NIST ThermoML archive (doi:10.1021/je300199a)
Several values for one entry are separate records, joined by “and”; a condition that tells them apart may be missing. Equal values may be shown once.

Settings: Calculated from knudsen effusion weight loss

O=[Si] [silicon monooxide]
Crystal
Settings	vapor or sublimation pressure [kPa]
1211 K	3e-06
1229 K	1.6e-06
1249 K	8e-06
1267 K	1.3e-05
1281 K	2.2e-05
1300 K	4e-05
1314 K	6e-05
1329 K	9e-05
1343 K	0.00013
1356 K	0.0002
1370 K	0.00028
1384 K	0.0004
1397 K	0.0005
1409 K	0.0007
1421 K	0.001
1432 K	0.0013
1443 K	0.0017
1454 K	0.0023
1463 K	0.0029
1474 K	0.0036
1484 K	0.005
1494 K	0.006
1503 K	0.007
1512 K	0.009
1522 K	0.011
1530 K	0.013
1539 K	0.015
1547 K	0.018
1555 K	0.021
1565 K	0.024

[Cu] [copper]
Settings	vapor or sublimation pressure
1211 K, Crystal	3.2e-06 kPa
1229 K, Crystal	2.6e-06 kPa
1249 K, Crystal	6.5e-06 kPa and 5.9e-06 kPa
1267 K, Crystal	1e-05 kPa
1281 K, Crystal	1.4e-05 kPa and 1.5e-05 kPa
1300 K, Crystal	2.1e-05 kPa and 1.9e-05 kPa
1314 K, Crystal	2.8e-05 kPa and 2.7e-05 kPa
1329 K, Crystal	4.5e-05 kPa and 3.8e-05 kPa
1343 K, Crystal	5.4e-05 kPa and 5.1e-05 kPa
1356 K, Crystal	7e-05 kPa
1370 K, Liquid	9e-05 kPa
1379 K, Liquid	0.00013 kPa
1384 K, Liquid	0.00012 kPa
1388 K, Liquid	0.00014 kPa
1397 K, Liquid	0.00015 kPa
1409 K, Liquid	0.00018 kPa and 0.00019 kPa
1421 K, Liquid	0.00023 kPa
1432 K, Liquid	0.00027 kPa and 0.00028 kPa
1434 K, Liquid	0.00033 kPa
1443 K, Liquid	0.00034 kPa
1454 K, Liquid	0.0004 kPa and 0.00041 kPa
1463 K, Liquid	0.00047 kPa and 0.00049 kPa
1474 K, Liquid	0.00055 kPa and 0.00057 kPa
1484 K, Liquid	0.00065 kPa and 0.0007 kPa
1494 K, Liquid	0.0007 kPa and 0.0008 kPa
1503 K, Liquid	0.0008 kPa and 0.0009 kPa
1512 K, Liquid	0.0008 kPa and 0.0011 kPa
1522 K, Liquid	0.0013 kPa and 0.0012 kPa
1530 K, Liquid	0.0015 kPa and 0.0014 kPa
1539 K, Liquid	0.0016 kPa
1547 K, Liquid	0.0018 kPa and 0.0019 kPa
1555 K, Liquid	0.0021 kPa
1565 K, Liquid	0.0023 kPa and 0.0024 kPa and 0.0027 kPa
1572 K, Liquid	0.0026 kPa and 0.0028 kPa and 0.0031 kPa
1581 K, Liquid	0.0029 kPa and 0.0031 kPa and 0.0035 kPa
1588 K, Liquid	0.0031 kPa and 0.0036 kPa and 0.004 kPa
1596 K, Liquid	0.0038 kPa and 0.0041 kPa and 0.0045 kPa
1604 K, Liquid	0.0039 kPa and 0.0046 kPa and 0.005 kPa
1611 K, Liquid	0.0042 kPa and 0.0052 kPa and 0.0055 kPa
1619 K, Liquid	0.0046 kPa and 0.0058 kPa and 0.006 kPa
1628 K, Liquid	0.005 kPa and 0.0066 kPa
